Data reported in patent US20240228504A1, “SUBSTITUTED TRICYCLIC AMIDES, ANALOGUES THEREOF, AND METHODS USING SAME” (Arbutus Biopharma Corporation, priority 2020, published 2024).

test system: HBV rcDNA in HepDE19 cells; test: HepDE19 assay with bDNA quantitation of HBV rcDNA; type: cell-based, hepatitis B virus; conditions: Hepatitis B virus, HepDE19, HepDE19 assay, inhibition of rcDNA formation, bDNA quantitation; read-out: DE-19bDNA EC50

| SMILES | EC50 [nM] |
| --- | --- |
| CN(C(=O)c1cccc(-c2cccc(F)c2)c1)[C@@H]1COCc2[nH]c(=O)c3cc(F)c(F)cc3c21 [Compound 290, (S)-N-(8,9-Difluoro-6-oxo-1,4,5,6-tetrahydro-2H-pyrano[3,4-c]isoquinolin-1-yl)-3′-fluoro-N-methyl-[1,1′-biphenyl]-3-carboxamide] | 2300 |
| CN(C(=O)c1cc(F)cc(-c2cccc(F)c2)c1)[C@@H]1COCc2[nH]c(=O)c3cc(F)c(F)cc3c21 [Compound 291, (S)-N-(8,9-Difluoro-6-oxo-1,4,5,6-tetrahydro-2H-pyrano[3,4-c]isoquinolin-1-yl)-3′,5-difluoro-N-methyl-[1,1′-biphenyl]-3-carboxamide] | 10100 |
| CN(C(=O)c1cccc(Oc2ccccc2)c1)[C@@H]1COCc2[nH]c(=O)c3cc(F)c(F)cc3c21 [Compound 292, (S)-N-(8,9-Difluoro-6-oxo-1,4,5,6-tetrahydro-2H-pyrano[3,4-c]isoquinolin-1-yl)-N-methyl-3-phenoxybenzamide] | 11200 |
| CN(C(=O)c1cccc(Oc2ccc(F)cc2)c1)[C@@H]1COCc2[nH]c(=O)c3cc(F)c(F)cc3c21 [Compound 293, (S)-N-(8,9-Difluoro-6-oxo-1,4,5,6-tetrahydro-2H-pyrano[3,4-c]isoquinolin-1-yl)-3-(4-fluorophenoxy)-N-methylbenzamide] | 7600 |
| CN(C(=O)c1cc2ccsc2[nH]1)[C@@H]1COCc2[nH]c(=O)c3cc(F)c(F)cc3c21 [Compound 294, (S)-N-(8,9-Difluoro-6-oxo-1,4,5,6-tetrahydro-2H-pyrano[3,4-c]isoquinolin-1-yl)-N-methyl-6H-thieno[2,3-b]pyrrole-5-carboxamide] | 50 |
| CN(C(=O)c1ccc(S(C)(=O)=O)cc1)[C@@H]1COCc2[nH]c(=O)c3cc(F)c(F)cc3c21 [Compound 295, (S)-N-(8,9-Difluoro-6-oxo-1,4,5,6-tetrahydro-2H-pyrano[3,4-c]isoquinolin-1-yl)-N-methyl-4-(methylsulfonyl)benzamide] | 350 |
| CNS(=O)(=O)c1cccc(C(=O)N(C)[C@@H]2COCc3[nH]c(=O)c4cc(F)c(F)cc4c32)c1 [Compound 296, (S)-N-(8,9-Difluoro-6-oxo-1,4,5,6-tetrahydro-2H-pyrano[3,4-c]isoquinolin-1-yl)-N-methyl-3-(N-methylsulfamoyl)benzamide] | 890 |
| CN(C(=O)c1cccc(NS(C)(=O)=O)c1)[C@@H]1COCc2[nH]c(=O)c3cc(F)c(F)cc3c21 [Compound 297, (S)-N-(8,9-Difluoro-6-oxo-1,4,5,6-tetrahydro-2H-pyrano[3,4-c]isoquinolin-1-yl)-N-methyl-3-(methylsulfonamido)benzamide] | 21000 |
| CN(C(=O)c1cccc(S(C)(=O)=O)c1)[C@@H]1COCc2[nH]c(=O)c3cc(F)c(F)cc3c21 [Compound 298, (S)-N-(8,9-Difluoro-6-oxo-1,4,5,6-tetrahydro-2H-pyrano[3,4-c]isoquinolin-1-yl)-N-methyl-3-(methylsulfonyl)benzamide] | 9000 |
| CN(C(=O)c1ccc2cncn2c1)[C@@H]1COCc2[nH]c(=O)c3cc(F)c(F)cc3c21 [Compound 299, (S)-N-(8,9-Difluoro-6-oxo-1,4,5,6-tetrahydro-2H-pyrano[3,4-c]isoquinolin-1-yl)-N-methylimidazo[1,5-a]pyridine-6-carboxamide] | 360 |
| CC(C)C(=O)OC1OC[C@@H](N(C)C(=O)c2cc3cc(F)c(F)cc3[nH]2)c2c1[nH]c(=O)c1cc(F)c(F)cc21 (stereo partly drawn) [Compound 300, (1S)-1-(5,6-Difluoro-N-methyl-1H-indole-2-carboxamido)-8,9-difluoro-6-oxo-1,4,5,6-tetrahydro-2H-pyrano[3,4-c]isoquinolin-4-yl isobutyrate] | 10 |
| CN(C(=O)c1cc(F)cc(Oc2ccccc2)c1)[C@@H]1COCc2[nH]c(=O)c3cc(F)c(F)cc3c21 [Compound 303, (S)-N-(8,9-Difluoro-6-oxo-1,4,5,6-tetrahydro-2H-pyrano[3,4-c]isoquinolin-1-yl)-3-fluoro-N-methyl-5-phenoxybenzamide] | 6700 |
| CN(C(=O)c1ccc2nccn2c1)[C@@H]1COCc2[nH]c(=O)c3cc(F)c(F)cc3c21 [Compound 306, (S)-N-(8,9-Difluoro-6-oxo-1,4,5,6-tetrahydro-2H-pyrano[3,4-c]isoquinolin-1-yl)-N-methylimidazo[1,2-a]pyridine-6-carboxamide] | 420 |
| CN(C(=O)c1cc2ccncc2[nH]1)[C@@H]1COCc2[nH]c(=O)c3cc(F)c(F)cc3c21 [Compound 307, (S)-N-(8,9-Difluoro-6-oxo-1,4,5,6-tetrahydro-2H-pyrano[3,4-c]isoquinolin-1-yl)-N-methyl-1H-pyrrolo[2,3-c]pyridine-2-carboxamide] | 200 |
| CN(C(=O)c1cc2cnccc2[nH]1)[C@@H]1COCc2[nH]c(=O)c3cc(F)c(F)cc3c21 [Compound 308, (S)-N-(8,9-Difluoro-6-oxo-1,4,5,6-tetrahydro-2H-pyrano[3,4-c]isoquinolin-1-yl)-N-methyl-1H-pyrrolo[3,2-c]pyridine-2-carboxamide] | 610 |
| CN(C(=O)c1cc2cnc(Cl)cc2[nH]1)[C@@H]1COCc2[nH]c(=O)c3cc(F)c(F)cc3c21 [Compound 309, (S)-6-chloro-N-(8,9-difluoro-6-oxo-1,4,5,6-tetrahydro-2H-pyrano[3,4-c]isoquinolin-1-yl)-N-methyl-1H-pyrrolo[3,2-c]pyridine-2-carboxamide] | 50 |
| CN(C(=O)c1cc2cc(F)ncc2[nH]1)[C@@H]1COCc2[nH]c(=O)c3cc(F)c(F)cc3c21 [Compound 310, (S)-N-(8,9-Difluoro-6-oxo-1,4,5,6-tetrahydro-2H-pyrano[3,4-c]isoquinolin-1-yl)-5-fluoro-N-methyl-1H-pyrrolo[2,3-c]pyridine-2-carboxamide] | 30 |
| CN(C(=O)c1ccc2cc(C(F)(F)F)cn2c1)[C@@H]1COCc2[nH]c(=O)c3cc(F)c(F)cc3c21 [Compound 311, (S)-N-(8,9-Difluoro-6-oxo-1,4,5,6-tetrahydro-2H-pyrano[3,4-c]isoquinolin-1-yl)-N-methyl-2-(trifluoromethyl)indolizine-6-carboxamide] | 140 |
| CN(C(=O)c1cc2c(Br)cncc2[nH]1)[C@@H]1COCc2[nH]c(=O)c3cc(F)c(F)cc3c21 [Compound 312, (S)-4-Bromo-N-(8,9-difluoro-6-oxo-1,4,5,6-tetrahydro-2H-pyrano[3,4-c]isoquinolin-1-yl)-N-methyl-1H-pyrrolo[2,3-c]pyridine-2-carboxamide] | 30 |
| CN(C(=O)c1ccnc(C(F)F)c1)[C@@H]1COCc2[nH]c(=O)c3cc(F)c(F)cc3c21 [Compound 313, (S)-N-(8,9-Difluoro-6-oxo-1,4,5,6-tetrahydro-2H-pyrano[3,4-c]isoquinolin-1-yl)-2-(difluoromethyl)-N-methylisonicotinamide] | 170 |
| CN(C(=O)c1cc2occc2[nH]1)[C@@H]1COCc2[nH]c(=O)c3cc(F)c(F)cc3c21 [Compound 314, (S)-N-(8,9-Difluoro-6-oxo-1,4,5,6-tetrahydro-2H-pyrano[3,4-c]isoquinolin-1-yl)-N-methyl-4H-furo[3,2-b]pyrrole-5-carboxamide] | 150 |
| CN(C(=O)c1cc2cc(F)c(F)cc2[nH]1)[C@@H]1COCc2c1c1cc(F)c(F)cc1c(=O)n2CCO [Compound 315, (S)-N-(8,9-Difluoro-5-(2-hydroxyethyl)-6-oxo-1,4,5,6-tetrahydro-2H-pyrano[3,4-c]isoquinolin-1-yl)-5,6-difluoro-N-methyl-1H-indole-2-carboxamide] | 30 |
| CN(C(=O)c1cc2cc(F)c(F)cc2[nH]1)[C@@H]1COCc2c1c1cc(F)c(F)cc1c(=O)n2CCN [Compound 316] | 390 |
| CN(C(=O)c1cc2cc(F)c(F)cc2[nH]1)[C@@H]1COCc2nc(OCCO)c3cc(F)c(F)cc3c21 [Compound 317, (S)-N-(8,9-Difluoro-6-(2-hydroxyethoxy)-1,4-dihydro-2H-pyrano[3,4-c]isoquinolin-1-yl)-5,6-difluoro-N-methyl-1H-indole-2-carboxamide] | 10 |
| COC1OC[C@@H](N(C)C(=O)c2cc3cc(F)c(F)cc3[nH]2)c2c1[nH]c(=O)c1cc(F)c(F)cc21 (stereo partly drawn) [Compound 320, N-((1S)-8,9-Difluoro-4-methoxy-6-oxo-1,4,5,6-tetrahydro-2H-pyrano[3,4-c]isoquinolin-1-yl)-5,6-difluoro-N-methyl-1H-indole-2-carboxamide] | 30 |
| CN(C(=O)c1cc2cc(F)c(F)cc2[nH]1)[C@@H]1COC(=O)c2[nH]c(=O)c3cc(F)c(F)cc3c21 [Compound 321, (S)-N-(8,9-Difluoro-4,6-dioxo-1,4,5,6-tetrahydro-2H-pyrano[3,4-c]isoquinolin-1-yl)-5,6-difluoro-N-methyl-1H-indole-2-carboxamide] | 10 |
| CN(C(=O)c1cccc(Oc2cccc(F)c2)c1)[C@@H]1COCc2[nH]c(=O)c3cc(F)c(F)cc3c21 [Compound 322, (S)-N-(8,9-Difluoro-6-oxo-1,4,5,6-tetrahydro-2H-pyrano[3,4-c]isoquinolin-1-yl)-3-(3-fluorophenoxy)-N-methylbenzamide] | 8100 |
| COc1ccc2[nH]c(C(=O)N(C)[C@@H]3COCc4[nH]c(=O)c5cc(F)c(F)cc5c43)cc2c1 [Compound 324, (S)-N-(8,9-Difluoro-6-oxo-1,4,5,6-tetrahydro-2H-pyrano[3,4-c]isoquinolin-1-yl)-5-methoxy-N-methyl-1H-indole-2-carboxamide] | 70 |
| CN(C(=O)c1cc2cc(Cl)ccc2[nH]1)[C@@H]1COCc2[nH]c(=O)c3cc(F)c(F)cc3c21 [Compound 325, (S)-5-chloro-N-(8,9-Difluoro-6-oxo-1,4,5,6-tetrahydro-2H-pyrano[3,4-c]isoquinolin-1-yl)-N-methyl-1H-indole-2-carboxamide] | 20 |
| Cc1ccc2[nH]c(C(=O)N(C)[C@@H]3COCc4[nH]c(=O)c5cc(F)c(F)cc5c43)cc2c1 [Compound 326, (S)-N-(8,9-Difluoro-6-oxo-1,4,5,6-tetrahydro-2H-pyrano[3,4-c]isoquinolin-1-yl)-N,5-dimethyl-1H-indole-2-carboxamide] | 2500 |
